Measurements reported in patent publication US20150291507A1, “PANTHENYL DOCOSAHEXAENEOATE AND ITS USE FOR TREATING AND PREVENTING CARDIOVASCULAR DISEASES” (PIERRE FABRE MEDICAMENT, priority 2010, published 2015).

System: atrial refractory period
Assay: Atrial refractory period in the anesthetized pig (electrical stimulation S1/S2, left atrium)
Assay type: in vivo, pig (male Landrace)
Procedure: The study was carried out on male Landrace pigs (20-25 kg). Anesthesia was maintained with isoflurane (0.5-3% of lung tidal volume). Number of respirations and tidal volume were adjusted so as to maintain blood gases within physiological limits. A left lateral thoracotomy was performed in the fourth intercostal space and the pericardium was opened. Polyethylene-filled catheters were introduced into the nearest thoracic artery to measure arterial pressure during the experiment and in the left saphenous vein to administer the active products or a control carrier. An atrial electrocardiogram (ECG) was continuously recorded, with three electrodes placed and sutured in the epicardium and the fourth serving as mass and placed in the thoracic muscles. Thus, the ECG provides information on atrial activity. Two bipolar electrodes were also placed in the left atrium at an interval of 0.3 cm and were maintained by fishing hooks. Electrical stimulations were carried out by a stimulator (DS 8000, WPI). […] The panthenyl docosahexaenoate of formula A (quantity: 10+10 mg/kg, n=4) was administered in the form of a bolus over 1 minute and then allowed to diffuse for 40 minutes. […]

CC/C=C\C/C=C\C/C=C\C/C=C\C/C=C\C/C=C\CCC(=O)OCCCNC(=O)C(O)C(C)(C)CO (stereo in doubt) [panthenyl docosahexaenoate of formula A, 3-[(2R)-2,4-dihydroxy-3,3-dimethylbutanamido]propyl(4Z,7Z,10Z,13Z,16Z,19Z)-docosa-4,7,10,13,16,19-hexaenoate] was tested, and the “increase in atrial refractory periods (ARPs)” value (intravenous 10 mg/kg + 10 mg/kg (bolus over 1 minute, then 40 minutes), anesthetized male Landrace pigs, n=4, p<0.001, placebo -4±3 ms) was 19 ± 2 ms and the “activity on atrial refractory period compared with the panthenol diester” value (same formulation and administration, anesthetized pigs, FIG. 1) was “significantly more active than the panthenol diester”.
